Results reported in PMC5785958, “New role of phenothiazine derivatives as peripherally acting CB1 receptor antagonizing anti-obesity agents” (Scientific Reports, 2018).

Assays:
[1] = PAMPA-BBB in vitro permeability assay; assay type: in vitro ADME, porcine; design: key to Prediction (penetration in CNS): CNS- indicates low passive CNS permeation; details: for Prediction (penetration in CNS): from PAMPA-BBB Pe, Pe less than 3.8 × 10^−6 cm s^−1 = low BBB permeation; for Papp at 120 min, 100 µg/ml: pig, PAMPA-BBB, porcine brain lipid, PBS/ethanol (70:30), 25 °C, mean ± SEM of three experiments, read-out: Pe
Description: As discussed above, BBB permeation of the available CB1 receptor antagonists limits their therapeutic utility. A successful CB1 receptor antagonist to be used as anti-obesity agent must be devoid of BBB permeability. […] In this study, the ability of the test compounds to cross the BBB was determined by the well established in vitro model PAMPA-BBB assay. This simple and rapid model has the advantage to predict passive BBB permeation with high accuracy[57],[58]. The in vitro permeability (Pe) of the test compounds through the lipid extract of porcine brain was determined in PBS/ethanol (70:30).
To assess the in vivo brain permeability potential of the test compounds, PAMPA assay for BBB was performed as reported by Di. et al.[57]. The donor microplate (polyvinylidene fluoride (PVDF) membrane, diameter 25 mm, pore size 0.45 µm Millipore) and the acceptor microplate were used for the experiment. The acceptor microplate was filled with 200 µl phosphate buffer saline (PBS) and ethanol in the ratio of 70:30 whereas the donor microplate filter surface was impregnated with porcine brain lipid (Avanti Polar Lipids) in dodecane (Sigma) (4 µl of 20 mg/ml). 200 µl of the test compound (100 µg/ml in PBS/ethanol) was added to the donor well. A sandwich was formed by placing the donor plate carefully on the acceptor plate, and the plates were kept undisturbed for 120 min at 25 °C. The donor plate was carefully detached after the incubation period and concentration of the test compound in the acceptor wells was determined using UV spectroscopy. Each sample was analyzed in four wells at five different wavelengths, and at least in three independent runs. Assay validation was performed by using nine commercial quality standard drugs of known BBB permeability[75] in which the reported permeability values of the standards were compared with their experimental permeability values, which gave a linear relationship, Pe(exp.) = 1.171Pe(bibl.) + 1.489 (R^2 = 0.983)[57],[58].

Wistar rats = assay: Acute hypophagic response in 24 h food-deprived rats; assay type: in vivo, rat; details: for effect on food intake (in words): 2 h
Description: As a preliminary screening, the synthesized compounds were evaluated for acute hypophagia in rats and the results are summarized in Fig. 5. Twenty four hour food deprived Wistar rats were given weighed amounts of food pellets after administration of the test compounds. Quantum of food consumed by the control group of animals was considered as 100%.
Male Wistar rats weighing 200–250 g were used in the present study to assess the acute hypophagic response. Animals were housed individually in a plexi-glass cage in a temperature and humidity controlled room with a 12 h light/dark cycle. Standard chow pellets and water were made available ad libitum. Animals were handled daily for a week before performing the actual experiments. The animal study protocol was approved by the Institutional Animal Ethics Committee (IAEC) of Faculty of Pharmacy, The Maharaja Sayajirao University of Baroda (Approval no. MSU/IAEC/2014-15/1401). The experiments were conducted in accordance to the guidelines of CPCSEA (Committee for the Purpose of Control and Supervision of Experiments on Animals), Ministry of Environment & Forests, Govt. of India. We tried our best to reduce the number of animals and their suffering.
The acute effect of the synthesized test compounds on feeding behavior was assessed in 24 h food-deprived animals. Before performing the experiments, the bedding material was removed from the cage. The animals were deprived of feed for 24 h with free access to water. The fasted animals were administered with the test compounds (10 mg/kg, p.o.). After 30 min of administration, weighed amounts of food pellets were served to the animals. Amount of food pellets and food spillage remaining after 2 h were weighed to find out the amount of food consumed by the animals.

[2] = 24 h fasted male Wistar rats, 10 mg/kg p.o., food served after 30 min, intake over 2 h
[3] = 24 h fasted male Wistar rats, 10 mg/kg p.o.

Row | SMILES | melting point [°C] | Prediction (penetration in CNS) [1] | Papp at 120 min, 100 µg/ml [1] [×10⁻⁶ cm/s] | food intake (control = 100%) (Wistar rats; [2]) | effect on food intake (in words) (Wistar rats; [3]) | food intake (control = 100%) (Wistar rats; 24 h fasted male Wistar rats, 10 mg/kg p.o., food served after 30 min, intake over 2 h, 10 mg/kg) | food intake (control = 100%) (Wistar rats; po, 10 mg/kg) [%]
1 | CCOC(=O)c1cnc(SCCCN2c3ccccc3Sc3ccccc32)nc1N [Compound 49, Ethyl 4-amino-2-(3-(10H-phenothiazin-10-yl)propylthio)pyrimidine-5-carboxylate] | 146 to 148 | – | – | – | – | – | –
2 | CCOC(=O)c1cnc(SCC(=O)N2c3ccccc3Sc3ccc(Cl)cc32)nc1N [Compound 26, Ethyl 4-amino-2-(2-(2-chloro-10H-phenothiazin-10-yl)-2-oxoethylthio)pyrimidine-5-carboxylate] | 156 to 158 | CNS- | 3.66 ± 0.67 | 62–74% | – | – | –
3 | N#Cc1cnc(SCC(=O)N2c3ccccc3Sc3ccc(C(F)(F)F)cc32)nc1N [Compound 5, 4-Amino-2-(2-(2-trifluoromethyl-10H-phenothiazin-10-yl)-2-oxoethylthio)pyrimidine-5-carbonitrile] | 218 to 220 | CNS- | 2.78 ± 0.14 | – | weak short acting hypophagic activity | 62–74% | 62
4 | N#Cc1cnc(SCCCN2c3ccccc3Sc3ccc(Cl)cc32)nc1N [Compound 43, 4-Amino-2-(3-(2-chloro-10H-phenothiazin-10-yl)propylthio)pyrimidine-5-carbonitrile] | 138 to 140 | CNS- | 3.47 ± 0.66 | 62–74% | – | – | –
5 | O=C(CSc1nnc(-c2ccncc2)o1)N1c2ccccc2Sc2ccc(C(F)(F)F)cc21 [Compound 29, 2-(5-(4-Pyridyl)-1,3,4-oxadiazol-2-ylthio)-1-(2-trifluoromethyl-10H-phenothiazin-10-yl)ethanone] | 156 to 158 | – | – | – | – | – | –
6 | COc1ccc2c(c1)N(CCCSc1ncc(C#N)c(N)n1)c1ccccc1S2 [Compound 44, 4-Amino-2-(3-(2-methoxy-10H-phenothiazin-10-yl)propylthio)pyrimidine-5-carbonitrile] | 158 to 160 | CNS- | 3.58 ± 0.73 | 62–74% | – | – | –
7 | N#Cc1cnc(SCCCN2c3ccccc3Sc3ccc(C(F)(F)F)cc32)nc1N [Compound 42, 4-Amino-2-(3-(2-trifluoromethyl-10H-phenothiazin-10-yl)propylthio)pyrimidine-5-carbonitrile] | 164 to 166 | CNS- | 2.6 ± 0.18 | 80–99% | no effect on the food intake | – | –
8 | CCOC(=O)c1cnc(SCCCN2c3ccccc3Sc3ccc(Cl)cc32)nc1N [Compound 47, Ethyl 4-amino-2-(3-(2-chloro-10H-phenothiazin-10-yl)propylthio)pyrimidine-5-carboxylate] | 120 to 122 | CNS- | 3.28 ± 0.38 | 62–74% | – | – | –
9 | N#Cc1cnc(SCCCN2c3ccccc3Sc3ccccc32)nc1N [Compound 45, 4-Amino-2-(3-(10H-phenothiazin-10-yl)propylthio)pyrimidine-5-carbonitrile] | 117 to 119 | – | – | – | – | – | –
10 | COc1ccc2c(c1)N(C(=O)CSc1nnc(-c3ccncc3)n1N)c1ccccc1S2 [Compound 35, 2-(4-Amino-5-(4-pyridyl)-4H-1,2,4-triazol-3-ylthio)-1-(2-methoxy-10H-phenothiazin-10-yl)ethanone] | 188 to 190 | – | – | – | – | – | –
11 | N#Cc1cnc(SCC(=O)N2c3ccccc3Sc3ccc(Cl)cc32)nc1N [Compound 22, 4-Amino-2-(2-(2-chloro-10H-phenothiazin-10-yl)-2-oxoethylthio)pyrimidine-5-carbonitrile] | 222 to 224 | CNS- | 2.28 ± 0.11 | 62–74% | – | – | –
12 | COc1ccc2c(c1)N(C(=O)CSc1nnc(-c3ccncc3)o1)c1ccccc1S2 [Compound 31, 1-(2-Methoxy-10H-phenothiazin-10-yl)-2-(5-(4-pyridyl)-1,3,4-oxadiazol-2-ylthio)-ethanone] | 166 to 168 | – | – | – | – | – | –

The next lines start with results.

Row | melting point [°C] | Prediction (penetration in CNS) [1] | Papp at 120 min, 100 µg/ml [1] [×10⁻⁶ cm/s] | SMILES | food intake (control = 100%) (Wistar rats; [2]) | effect on food intake (in words) (Wistar rats; [3]) | food intake (control = 100%) (Wistar rats; 24 h fasted male Wistar rats, 10 mg/kg p.o., food served after 30 min, intake over 2 h, 10 mg/kg) | food intake (control = 100%) (Wistar rats; po, 10 mg/kg) [%]
13 | 118 to 120 | CNS- | 2.84 ± 0.28 | CCOC(=O)c1cnc(SCCCN2c3ccccc3Sc3ccc(C(F)(F)F)cc32)nc1N [Compound 46, Ethyl 4-amino-2-(3-(2-trifluoromethyl-10H-phenothiazin-10-yl)propylthio)pyrimidine-5-carboxylate] | 62–74% | – | – | –
14 | 202 to 204 | – | – | CCOC(=O)c1cnc(SCC(=O)N2c3ccccc3Sc3ccccc32)nc1N [Compound 28, Ethyl 4-amino-2-(2-oxo-2-(10H-phenothiazin-10-yl)ethylthio)pyrimidine-5-carboxylate] | – | – | – | –
15 | 106 to 108 | – | – | CCOC(=O)c1cnc(SCCCN2c3ccccc3Sc3ccc(OC)cc32)nc1N [Compound 48, Ethyl 4-amino-2-(3-(2-methoxy-10H-phenothiazin-10-yl)propylthio)pyrimidine-5-carboxylate] | – | – | – | –
16 | 232 to 234 | – | – | Nn1c(SCC(=O)N2c3ccccc3Sc3ccccc32)nnc1-c1ccncc1 [Compound 36, 2-(4-Amino-5-(4-pyridyl)-4H-1,2,4-triazol-3-ylthio)-1-(10H-phenothiazin-10-yl)ethanone] | – | – | – | –
17 | 241 to 243 | – | – | N#Cc1cnc(SCC(=O)N2c3ccccc3Sc3ccccc32)nc1N [Compound 24, 4-Amino-2-(2-oxo-2-(10H-phenothiazin-10-yl)ethylthio)pyrimidine-5-carbonitrile] | – | – | – | –
18 | 212 to 214 | CNS- | 3.22 ± 0.63 | O=C(CSc1nnc(-c2ccncc2)o1)N1c2ccccc2Sc2ccccc21 [Compound 32, 1-(10H-Phenothiazin-10-yl)-2-(5-(4-pyridyl)-1,3,4-oxadiazol-2-ylthio)ethanone] | 80–99% | no effect on food intake | – | –
19 | 202 to 204 | CNS- | 1.05 ± 0.22 | Nn1c(SCC(=O)N2c3ccccc3Sc3ccc(C(F)(F)F)cc32)nnc1-c1ccncc1 [Compound 33, 2-(4-Amino-5-(4-pyridyl)-4H-1,2,4-triazol-3-ylthio)-1-(2-(trifluoromethyl)-10H-phenothiazin-10-yl)ethanone] | 80–99% | did not impact the food intake | – | –
20 | 194 to 196 | – | – | O=C(CSc1nnc(-c2ccncc2)o1)N1c2ccccc2Sc2ccc(Cl)cc21 [Compound 30, 1-(2-Chloro-10H-phenothiazin-10-yl)-2-(5-(4-pyridyl)-1,3,4-oxadiazol-2-ylthio)ethanone] | – | – | – | –
